Results: PubChem BioAssay AID1963431 (Molecular Pharmacology Branch, DTP, NCI, 2024)

Test system: Rh18 complex spheroid viability, percent test/control
Experiment: Anticancer human tumor Rh18 cell line growth inhibition [Asc];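 also: spheroids exposed to compound for 7 days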;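 as to viability, T/C: 100% = DMSO vehicle control wells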
Conditions: for IC50: curve of first compound; for viability, T/C: stronger effect = lower value
Method: Multicellular complex tumor spheroid response to apoptosis pathway targeting inhibitors Alrizomadlin, Pelcitoclax, and Dasminapant in combination with a variety of drugs and investigational agents in selected tumor cell lines
The MDM2 inhibitor alrizomadlin, the Bcl-2/Bcl-xL inhibitor pelcitoclax, and the IAPs inhibitor dasminapant were evaluated both individually and in combination with standard of care and investigational anticancer small molecules within a complex spheroid model of solid tumors. . Complex spheroids include a stromal component modeled by human endothelial cells (HUVEC) and fibroblasts modeled by human mesenchymal stem cells (MSCs). The concentration ranges selected for each drug and investigational agent were based upon clinically achievable concentrations if the clinical Cmax of the agent was known.
Compounds. The drugs and investigational agents: alrizomadlin (APG-115; NSC831270), pelcitoclax (APG-1252; NSC835773), dasminapant (APG-1387;NSC834197), TAK-243 (NSC785004), copanlisib (NSC809693), olaparib (NSC753686), talazoparib (NSC767125), cobimetinib (NSC 768068), eltanexor (KPT-8602, NSC 794443), abemaciclib (NSC 768073), sotorasib (NSC818433), adagrasib (NSC 831453), MRTX-1133 (NSC 836407), Iadademestat (ORY1001, NSC 806812), and RMC-4630 (NSC839698), were obtained from the NCI Developmental Therapeutics Program Chemical Repository. The FDA-approved anticancer drug set is available from the Developmental Therapeutics Program at https://dtp.cancer.gov/organization/dscb/obtaining/available plates.htm. […] The stock solutions were prepared in dimethyl sulfoxide (DMSO, Sigma-Aldrich, St. Louis, MO, cat. D2650) at 800-fold the tested concentration and stored at -70 degrees C prior to their use. All drugs and investigational agents were tested over a range starting from a high concentration at or near the clinical Cmax and decreasing in half-log increments. If the clinical Cmax for an agent had not been determined, the highest concentration tested was 10 microM.
The patient-derived cancer (PDC) cell lines include five colon adenocarcinomas: 186277-243-T-J2-PDC, 616215-338-R-J1-PDC, 439559-082-T-J2-PDC, 463943-066-T-J2-PDC, and 519858-162-T-J1-PDC; three pancreatic carcinomas: 323965-272-R-J2-PDC, 521955-158-R6-J3-PDC, and 521955-158-R2-J5-PDC; two uterine sarcomas: 327498-152-R-J2-PDC and 993429-296-R-J1-PDC; two rhabdomyosarcomas: 755483-174-R-J1-PDC and 772245-204-R-J1-PDC; two soft tissue sarcomas: 126254-015-R-J1-PDC and 494315-158-R-J1-PDC; two malignant fibrous histiocytomas: 317291-083-R-J1-PDC and 596521-263-R-J1-PDC; two breast carcinomas: 171881-019-R-J1-PDC and 885512-296-R-J2-PDC; and one ovarian carcinoma: 6556581-035-R-J-PDC were obtained from the NCI PDMR, (https://pdmr.cancer.gov). The established cell lines HSSY-2 synovial sarcoma (RRID:CVCL 8719), SYO-1 synovial sarcoma (RRID:CVCL_7146), MPNST malignant peripheral neural sheath tumor were obtained from the Sloan Kettering Institute. The following established cell lines were purchased from the American Type Culture Collection (ATCC, Manassas, VA), Sor the received from the NCI repository:, PANC-1 pancreatic carcinoma (CRL-1469, RRID:CVCL_0480), OVCAR-5 ovarian carcinoma (RRID:CVCL_1628), OVCAR-8 ovarian carcinoma (RRID:CVCL_1629), , MCF-7 breast carcinoma (CRL-12584, RRID:CVCL_0031), MDA-MB-231 breast carcinoma (CRL-12532, RRID:CVCL_0062), NCI-H1876 small cell lung carcinoma (CRL-5902, RRID:CVCL_1503), NCI-H510A small cell lung carcinoma (HTB-184, RRID:CVCL_1565), NCI-H1417 (CRL-5869, RRID:CVCL_1469), and NCI-H196 small cell lung carcinoma (CRL-5823, RRID:CVCL_1509). Dr. Peter Houghton (Greehey Children's Cancer Research Institute, University of Texas Health Science Center, San Antonio, TX) provided Rh-18 rhabdomyosarcoma (RRID:CVCL_1659). Pooled donor human umbilical vein endothelial cells (HUVEC, Lonza, cat. CC-2519) and human mesenchymal stem cells (hMSC, Lonza, cat. PT-2501) were purchased from Lonza (Walkersville, MD).
Cell Culture. […]

SMILES: COc1c(OCCCN2CCOCC2)ccc2c3n(c(=NC(=O)c4cnc(N)nc4)nc12)CCN3 + CNC(C)C(=O)NC1CN(S(=O)(=O)c2cccc(S(=O)(=O)N3CCC4CCC(C(=O)NC(c5ccccc5)c5ccccc5)N4C(=O)C(NC(=O)C(C)NC)C3)c2)CCC2CCC(C(=O)NC(c3ccccc3)c3ccccc3)N2C1=O
- IC50 (second compound 0.01 µM): 4.1 nM
- IC50 (second compound 0.0316 µM): < 3.16 nM
- IC50 (second compound 0.1 µM): < 3.16 nM
- IC50 (second compound 0.316 µM): < 3.16 nM
- IC50 (second compound 1 µM): < 3.16 nM
- viability, T/C (second compound 0.01 µM, first compound 0.00316 µM): 56.5%
- viability, T/C (second compound 0.01 µM, first compound 0.01 µM): 28.1%
- viability, T/C (second compound 0.01 µM, first compound 0.0316 µM): 13.5%
- viability, T/C (second compound 0.01 µM, first compound 0.1 µM): 5.19%
- viability, T/C (second compound 0.01 µM, first compound 0.316 µM): 1.61%
- viability, T/C (second compound 0.01 µM, first compound 1 µM): 0.4%
- viability, T/C (second compound 0.0316 µM, first compound 0.00316 µM): 38.4%
- viability, T/C (second compound 0.0316 µM, first compound 0.01 µM): 26.1%
- viability, T/C (second compound 0.0316 µM, first compound 0.0316 µM): 8.33%
- viability, T/C (second compound 0.0316 µM, first compound 0.1 µM): 2.99%
- viability, T/C (second compound 0.0316 µM, first compound 0.316 µM): 2.16%
- viability, T/C (second compound 0.0316 µM, first compound 1 µM): 0.41%
- viability, T/C (second compound 0.1 µM, first compound 0.00316 µM): 37.3%
- viability, T/C (second compound 0.1 µM, first compound 0.01 µM): 27.9%
- viability, T/C (second compound 0.1 µM, first compound 0.0316 µM): 9.81%
- viability, T/C (second compound 0.1 µM, first compound 0.1 µM): 2.85%
- viability, T/C (second compound 0.1 µM, first compound 0.316 µM): 1.49%
- viability, T/C (second compound 0.1 µM, first compound 1 µM): 0.35%
- viability, T/C (second compound 0.316 µM, first compound 0.00316 µM): 31.4%
- viability, T/C (second compound 0.316 µM, first compound 0.01 µM): 22.4%
- viability, T/C (second compound 0.316 µM, first compound 0.0316 µM): 9.6%
- viability, T/C (second compound 0.316 µM, first compound 0.1 µM): 2.64%
- viability, T/C (second compound 0.316 µM, first compound 0.316 µM): 1.51%
- viability, T/C (second compound 0.316 µM, first compound 1 µM): 0.29%
- viability, T/C (second compound 1 µM, first compound 0.00316 µM): 27.5%
- viability, T/C (second compound 1 µM, first compound 0.01 µM): 20.3%
- viability, T/C (second compound 1 µM, first compound 0.0316 µM): 6.75%
- viability, T/C (second compound 1 µM, first compound 0.1 µM): 3.45%
- viability, T/C (second compound 1 µM, first compound 0.316 µM): 1.17%
- viability, T/C (second compound 1 µM, first compound 1 µM): 0.36%

SMILES: O=C(c1cc(Cc2n[nH]c(=O)c3ccccc23)ccc1F)N1CCN(C(=O)C2CC2)CC1 + CCN1C(C(=O)NC23CCC(C(=O)O)(CC2)CC3)C(c2cccc(Cl)c2F)C2(C(=O)Nc3cc(Cl)ccc32)C12CCCCC2
- IC50 (second compound 0.03 µM): < 31.6 nM
- IC50 (second compound 0.0949 µM): < 31.6 nM
- IC50 (second compound 0.3 µM): < 31.6 nM
- IC50 (second compound 0.949 µM): < 31.6 nM
- IC50 (second compound 3 µM): < 31.6 nM
- viability, T/C (second compound 0.03 µM, first compound 0.0316 µM): 49.4%
- viability, T/C (second compound 0.03 µM, first compound 0.1 µM): 38.6%
- viability, T/C (second compound 0.03 µM, first compound 0.316 µM): 43.2%
- viability, T/C (second compound 0.03 µM, first compound 1 µM): 41.7%
- viability, T/C (second compound 0.03 µM, first compound 3.16 µM): 40.7%
- viability, T/C (second compound 0.03 µM, first compound 10 µM): 46.3%
- viability, T/C (second compound 0.0949 µM, first compound 0.0316 µM): 26.5%
- viability, T/C (second compound 0.0949 µM, first compound 0.1 µM): 26.8%
- viability, T/C (second compound 0.0949 µM, first compound 0.316 µM): 28.7%
- viability, T/C (second compound 0.0949 µM, first compound 1 µM): 29%
- viability, T/C (second compound 0.0949 µM, first compound 3.16 µM): 25.1%
- viability, T/C (second compound 0.0949 µM, first compound 10 µM): 23.7%
- viability, T/C (second compound 0.3 µM, first compound 0.0316 µM): 14.2%
- viability, T/C (second compound 0.3 µM, first compound 0.1 µM): 13.7%
- viability, T/C (second compound 0.3 µM, first compound 0.316 µM): 14.7%
- viability, T/C (second compound 0.3 µM, first compound 1 µM): 12.3%
- viability, T/C (second compound 0.3 µM, first compound 3.16 µM): 11.6%
- viability, T/C (second compound 0.3 µM, first compound 10 µM): 12.4%
- viability, T/C (second compound 0.949 µM, first compound 0.0316 µM): 10.5%
- viability, T/C (second compound 0.949 µM, first compound 0.1 µM): 11.3%
- viability, T/C (second compound 0.949 µM, first compound 0.316 µM): 10.7%
- viability, T/C (second compound 0.949 µM, first compound 1 µM): 10.2%
- viability, T/C (second compound 0.949 µM, first compound 3.16 µM): 9.53%
- viability, T/C (second compound 0.949 µM, first compound 10 µM): 9.36%
- viability, T/C (second compound 3 µM, first compound 0.0316 µM): 10.4%
- viability, T/C (second compound 3 µM, first compound 0.1 µM): 8.17%
- viability, T/C (second compound 3 µM, first compound 0.316 µM): 9.35%
- viability, T/C (second compound 3 µM, first compound 1 µM): 10.7%
- viability, T/C (second compound 3 µM, first compound 3.16 µM): 9%
- viability, T/C (second compound 3 µM, first compound 10 µM): 8.64%
